One experiment concerns the target S1P3 (Homo sapiens, UniProt Q99500). In words: Receptor binding assay, [33P]sphingosine 1-phosphate competition, membranes of CHO cells expressing S1P3. The procedure, abridged: (§1)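 SPA competition on CHO membranes with [33P]S1P at 30 pM (S1P1) or 15 pM (S1P3), in 50 mM HEPES pH 7.5, 5 mM MgCl2, 100 mM NaCl, 0.4% fatty acid-free BSA, 60 min at RT. Non-specific binding defined by 1000-fold unlabeled S1P; Ki values reported.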

Experiment [1] concerns the target T1, S1P1 (Homo sapiens, UniProt P21453). In words: Receptor binding assay, [33P]sphingosine 1-phosphate competition, membranes of CHO cells expressing S1P1. A digest of the protocol:
as §1
Target sequence in this assay (P21453 whole entry, species assumed): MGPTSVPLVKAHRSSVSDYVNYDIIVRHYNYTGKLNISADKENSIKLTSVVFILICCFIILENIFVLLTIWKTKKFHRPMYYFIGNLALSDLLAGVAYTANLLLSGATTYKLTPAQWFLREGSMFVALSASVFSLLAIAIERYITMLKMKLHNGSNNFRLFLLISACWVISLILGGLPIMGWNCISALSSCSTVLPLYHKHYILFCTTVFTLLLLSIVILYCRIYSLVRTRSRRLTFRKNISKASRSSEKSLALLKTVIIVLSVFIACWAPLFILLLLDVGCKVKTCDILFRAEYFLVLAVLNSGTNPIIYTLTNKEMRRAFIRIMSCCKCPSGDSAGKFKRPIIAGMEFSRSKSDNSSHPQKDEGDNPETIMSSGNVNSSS

For experiment [2], the target named is T1, S1P1. As to the kind of experiment: S1P1 internalization assay in S1P1-U2OS cells (cell imaging). In kind it is cell-based. More on the design: host or cells: U2OS (human bone osteosarcoma epithelial cells). The following applies: U2OS cells expressing S1P1-EGFP, 384-well format. A digest of the protocol: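 U2OS cells stably expressing human S1P1-EGFP, serum-starved 2 h in medium with 0.1% fatty-acid-free BSA, then compound 1 h at 37° C. After fixation and Hoechst nuclear stain, receptor internalization imaged as EGFP spot count per nucleus.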
Target sequence in this assay (P21453 whole entry): as the sequence (P21453 whole entry, species assumed) above

[3] abbreviates: 384 well plate, read-out: S1P3 Binding Ki [M] (384 well plate).
Where [4] appears, read: 384 well plate, read-out: S1P1 Binding Ki [M] (384 well plate).

Molecules are shown by their SMILES. Where a name gives a salt, the structure may show the parent alone. Read-outs that look alike come from different tables or passages of the source. A value given as a limit tells only on which side of the number the result lay.

Sequence of S1P3 (Q99500 whole entry, species assumed): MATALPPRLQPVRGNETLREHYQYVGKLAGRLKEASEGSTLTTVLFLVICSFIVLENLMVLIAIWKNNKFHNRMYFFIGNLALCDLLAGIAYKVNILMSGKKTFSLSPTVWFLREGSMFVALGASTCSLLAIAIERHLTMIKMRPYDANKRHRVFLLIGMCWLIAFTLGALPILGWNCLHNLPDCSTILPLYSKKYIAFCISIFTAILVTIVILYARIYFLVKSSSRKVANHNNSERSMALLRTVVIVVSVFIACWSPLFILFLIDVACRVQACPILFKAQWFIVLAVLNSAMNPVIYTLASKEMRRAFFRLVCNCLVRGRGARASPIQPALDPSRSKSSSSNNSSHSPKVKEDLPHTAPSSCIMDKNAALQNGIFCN

In the case of `Cc1cc(-c2nc(-c3cccc(C(C)NCC(=O)O)c3)no2)ccc1-c1ccccc1C(F)(F)F` (centres unmarked) [Example 38, N-[1-(3-{5-[2-methyl-2′-(trifluoromethyl)biphenyl-4-yl]-1,2,4-oxadiazol-3-yl}phenyl)ethyl]glycine, hydrochloride salt], the Ki – broadly, the dissociation constant of the complex between target and ligand, obtained from inhibition or displacement – on S1P3 (setting [3]) was found to be 1.43e-06 M; on S1P1 [1] (setting [4]) it was 2.84e-09 M. For the same compound, on S1P1 [2], the half-maximal effective concentration (EC50) (as a rule, the midpoint of the concentration-response curve) came to 77.9 nM.

Regarding `Cc1ccccc1-c1ccc(-c2nc(-c3ccc(C(C)N(C)[C@@H](C)C(=O)O)cc3)no2)cc1C(F)(F)F` (some centres unmarked) [Example 39, N-methyl-N-[1-(4-{5-[2′-methyl-2-(trifluoromethyl)biphenyl-4-yl]-1,2,4-oxadiazol-3-yl}phenyl)ethyl]alanine], the Ki was found to be 3.18e-06 M at S1P3 (setting [3]) and 4.34e-09 M at S1P1 [1] (setting [4]). The compound also returned an EC50 at S1P1 [2] of 20.9 nM.

For the compound `Cc1ccccc1-c1ccc(-c2nc(-c3ccc(C(C)N(C)CC(=O)O)cc3)no2)cc1C(F)(F)F` (centres unmarked) [Example 40, N-methyl-N-[1-(4-{5-[2′-methyl-2-(trifluoromethyl)biphenyl-4-yl]-1,2,4-oxadiazol-3-yl}phenyl)ethyl]glycine, hydrochloride salt], the Ki on S1P3 (setting [3]) was determined as 5.32e-07 M; on S1P1 [1] (setting [4]), 2.17e-09 M. The compound further had an EC50 on S1P1 [2] of 17.8 nM.

With `CCC(NCc1ccc(-c2noc(-c3ccc(-c4ccccc4C)c(C(F)(F)F)c3)n2)cc1F)C(=O)O` (centres unmarked) [Example 41, 2-[(2-fluoro-4-{5-[2′-methyl-2-(trifluoromethyl)biphenyl-4-yl]-1,2,4-oxadiazol-3-yl}benzyl)amino]butanoic acid, hydrochloride salt], the Ki amounted to 8.72e-06 M on S1P3 (setting [3]) and 4.88e-09 M at S1P1 [1] (setting [4]). Also, at S1P1 [2], the EC50 worked out at 12.8 nM.

Turning to `Cc1ccccc1-c1ccc(-c2nc(-c3cccc(C(C)NCC(=O)O)c3)no2)cc1C(F)(F)F` (centres unmarked) [Example 42, N-[1-(3-{5-[2′-methyl-2-(trifluoromethyl)biphenyl-4-yl]-1,2,4-oxadiazol-3-yl}phenyl)ethyl]glycine, hydrochloride salt], the Ki at S1P3 (setting [3]) was found to be 1.06e-07 M; at S1P1 [1] (setting [4]) it was 1.02e-09 M. Moreover, the EC50 on S1P1 [2] is 7.17 nM.

Regarding `COCc1cc(-c2nc(-c3ccc(CN(C)C(C)(C)C(=O)O)c(F)c3)no2)ccc1-c1ccccc1C` [Example 43, N-(2-fluoro-4-{5-[2-(methoxymethyl)-2′-methylbiphenyl-4-yl]-1,2,4-oxadiazol-3-yl}benzyl)-N,2-dimethylalanine, hydrochloride salt], the Ki was 3.15e-06 M at S1P3 (96 well plate, read-out: S1P3 Binding Ki [M] (96 well plate)); 8.4e-07 M at S1P3 (setting [3]); 6.3e-10 M on S1P1 [1] (96 well plate, read-out: S1P1 Binding Ki [M] (96 well plate)); 2.32e-09 M on S1P1 [1] (setting [4]). This compound also yielded an EC50 at S1P1 [2] of 24.1 nM.

For the compound `COCc1cc(-c2nc(-c3ccc(CN(C)[C@@H](C)C(=O)O)c(F)c3)no2)ccc1-c1ccccc1C` [Example 44, N-(2-fluoro-4-{5-[2-(methoxymethyl)-2′-methylbiphenyl-4-yl]-1,2,4-oxadiazol-3-yl}benzyl)-N-methylalanine, hydrochloride salt], the Ki at S1P3 (setting [3]) came to 8.69e-07 M; at S1P1 [1] (setting [4]), 1.58e-09 M. This compound also displayed a half-maximal effective concentration (EC50) on S1P1 [2] of 6.29 nM.

In the case of `Cc1ccccc1-c1ccc(-c2nc(-c3ccc(CN(C)[C@@H](CO)C(=O)O)c(F)c3)no2)cc1C(F)(F)F` [Example 45, N-(2-fluoro-4-{5-[2′-methyl-2-(trifluoromethyl)biphenyl-4-yl]-1,2,4-oxadiazol-3-yl}benzyl)-N-methylserine, hydrochloride salt], the values for the Ki on S1P3 (setting [3]) and on S1P1 [1] (setting [4]) were 4.36e-07 M and 2.68e-09 M, respectively. For the same compound, the EC50 on S1P1 [2] stood at 30.8 nM.

With `Cc1ccccc1-c1ccc(-c2nc(-c3cc(F)cc(CNC(C)(C)C(=O)O)c3)no2)cc1C(F)(F)F` [Example 46, N-(3-fluoro-5-{5-[2′-methyl-2-(trifluoromethyl)biphenyl-4-yl]-1,2,4-oxadiazol-3-yl}benzyl)-2-methylalanine, hydrochloride salt], the Ki at S1P3 (setting [3]) was 9.55e-08 M; at S1P1 [1] (setting [4]), 7.94e-10 M. This compound yielded an EC50 at S1P1 [2] of 9.34 nM.

Consider `Cc1ccccc1-c1ccc(-c2nc(-c3ccc(CN[C@H](C(=O)O)C(C)C)c(F)c3)no2)cc1C(F)(F)F` [Example 47, N-(2-fluoro-4-{5-[2′-methyl-2-(trifluoromethyl)biphenyl-4-yl]-1,2,4-oxadiazol-3-yl}benzyl)valine, hydrochloride salt], for which the results for the Ki on S1P3 (setting [3]) and on S1P1 [1] (setting [4]) were 1.95e-05 M and 4.26e-09 M, respectively. The compound also registered an EC50 at S1P1 [2] of 39.1 nM.

Turning to `Cc1cc(-c2nc(-c3ccc(CNC(C)(C)C(=O)O)c(F)c3)no2)ccc1-c1ccccc1C(F)(F)F` [Example 48, N-(2-fluoro-4-{5-[2-methyl-2′-(trifluoromethyl)biphenyl-4-yl]-1,2,4-oxadiazol-3-yl}benzyl)-2-methylalanine, hydrochloride salt], the values for the inhibitory constant (Ki) at S1P3 (setting [3]) and on S1P1 [1] (setting [4]) were above 2e-05 M and 4.68e-09 M, respectively. The compound also came in with a concentration giving a half-maximal response (EC50) at S1P1 [2] of 23.8 nM.

As to `Cc1ccccc1-c1ccc(-c2nc(-c3ccc(CNC(C)(C)C(=O)O)c(F)c3)no2)cc1C(F)(F)F` [Example 49, N-(2-fluoro-4-{5-[2′-methyl-2-(trifluoromethyl)biphenyl-4-yl]-1,2,4-oxadiazol-3-yl}benzyl)-2-methylalanine, hydrochloride salt], the Ki at S1P3 (setting [3]) was 9.71e-07 M; at S1P1 [1] (setting [4]) it was 1.06e-09 M. In addition, the EC50 on S1P1 [2] came to 13.8 nM.

For the compound `Cc1ccccc1-c1ccc(-c2nc(-c3ccc(CN(C)[C@@H](C)C(=O)O)c(F)c3)no2)cc1C(F)(F)F` [Example 50, N-(2-fluoro-4-{5-[2′-methyl-2-(trifluoromethyl)biphenyl-4-yl]-1,2,4-oxadiazol-3-yl}benzyl)-N-methylalanine, hydrochloride salt], the Ki at S1P3 (setting [3]) came to 6.61e-07 M; on S1P1 [1] (setting [4]) it was 3.02e-09 M. Also, on S1P1 [2], the EC50 stood at 25.8 nM.

In the case of `Cc1ccccc1-c1ccc(-c2nc(-c3ccc(C(CO)NCC(=O)O)cc3)no2)cc1C(F)(F)F` (centres unmarked) [Example 52, 2-(2-Hydroxy-1-(4-(5-(2′-methyl-2-(trifluoromethyl)biphenyl-4-yl)-1,2,4-oxadiazol-3-yl)phenyl)ethylamino)acetic acid], the figures for the Ki on S1P3 (setting [3]) and at S1P1 [1] (setting [4]) were 1.08e-06 M and 3.76e-09 M, respectively. The response at S1P1 [2] was half-maximal at 10.2 nM (EC50).

On to `COCc1cc(-c2nc(-c3ccc(CN(C)C4(C(=O)O)CCCC4)cc3)no2)ccc1-c1ccccc1C` [Example 53, 1-((4-(5-(2-(methoxymethyl)-2′-methylbiphenyl-4-yl)-1,2,4-oxadiazol-3-yl)benzyl)(methyl)amino)cyclopentanecarboxylic acid], for which the Ki was determined as 3.64e-06 M on S1P3 (setting [3]) and 3.97e-09 M at S1P1 [1] (setting [4]). Further, on S1P1 [2], the EC50 worked out at 42.2 nM.

For `CC[C@H](NCc1ccc(-c2noc(-c3ccc(-c4ccccc4C)c(C(F)(F)F)c3)n2)cc1)C(=O)O` [Example 54, (2S)-2-(4-(5-(2′-methyl-2-(trifluoromethyl)biphenyl-4-yl)-1,2,4-oxadiazol-3-yl)benzylamino)butanoic acid], the Ki at S1P3 (setting [3]) came out at 6.69e-06 M; at S1P1 [1] (setting [4]) it was 7.95e-09 M. On S1P1 [2], this compound yielded an EC50 of 39.7 nM.

In the case of `Cc1ccccc1-c1ccc(-c2nc(-c3ccc(CN[C@H](C(=O)O)C(C)C)cc3)no2)cc1C(F)(F)F` [Example 55], the Ki at S1P3 (setting [3]) is 8.02e-07 M; at S1P1 [1] (setting [4]), 2.2e-09 M. This compound displayed a half-maximal effective concentration (EC50) at S1P1 [2] of 16.8 nM.

`Cc1ccccc1-c1ccc(-c2nc(-c3ccc(CN(C)C(C)(C)C(=O)O)cc3)no2)cc1C(F)(F)F` [Example 56]: the Ki on S1P3 (setting [3]) was determined as 8.54e-06 M; at S1P1 [1] (setting [4]), 4.13e-09 M. On S1P1 [2], this compound registered an EC50 of 57.8 nM.

Turning to `Cc1ccccc1-c1ccc(-c2nc(-c3ccc(CNC(C)(C)C(=O)O)cc3)no2)cc1C(F)(F)F` [Example 57], the Ki on S1P3 (setting [3]) was above 2e-05 M; on S1P1 [1] (setting [4]) it was 5.69e-09 M. On S1P1 [2], a half-maximal response (EC50) required 19.9 nM.

Consider `CCC(NCc1ccc(-c2noc(-c3ccc(-c4ccccc4C)c(C(F)(F)F)c3)n2)cc1)C(=O)O` (centres unmarked) [Example 58], for which the Ki at S1P3 (setting [3]) came out at 5.22e-06 M; on S1P1 [1] (setting [4]), 3.39e-09 M. In addition, the EC50 on S1P1 [2] came out at 4.87 nM.

Turning to `Cc1ccccc1-c1ccc(-c2nc(-c3ccc(CNC4(C(=O)O)CCCC4)cc3)no2)cc1C(F)(F)F` [Example 59], the Ki on S1P3 (setting [3]) was above 2e-05 M; at S1P1 [1] (setting [4]) it was 6.83e-09 M. On S1P1 [2], this compound gave an EC50 of 44.4 nM.

For `Cc1ccccc1-c1ccc(-c2nc(-c3ccc(CN[C@@H](CCO)C(=O)O)cc3)no2)cc1C(F)(F)F` [Example 60], the Ki at S1P3 (setting [3]) was 1.03e-06 M; on S1P1 [1] (setting [4]) it was 3.46e-09 M. The EC50 on S1P1 [2] is 24.2 nM.

With `Cc1ccccc1-c1ccc(-c2nc(-c3ccc(CN[C@H](C(=O)O)[C@@H](C)O)cc3)no2)cc1C(F)(F)F` [Example 61], the figures for the inhibitory constant (Ki) on S1P3 (setting [3]) and at S1P1 [1] (setting [4]) were 1.15e-06 M and 4.27e-09 M, respectively. Besides, the EC50 at S1P1 [2] was 23.3 nM.

Take `Cc1ccccc1-c1ccc(-c2nc(-c3ccc(CNCC(C)C(=O)O)cc3)no2)cc1C(F)(F)F` (centres unmarked) [Example 63]: the Ki was 2.02e-07 M on S1P3 (setting [3]) and 1.15e-09 M on S1P1 [1] (setting [4]). The compound also gave an EC50 on S1P1 [2] of 3.47 nM.

With `Cc1ccccc1-c1ccc(-c2nc(-c3ccc(CNC(C(=O)O)C(C)O)cc3)no2)cc1C(F)(F)F` (centres unmarked) [Example 64], the Ki on S1P3 (setting [3]) turned out to be 1.99e-06 M; on S1P1 [1] (setting [4]), 6.78e-09 M. This compound had an EC50 on S1P1 [2] of 45.9 nM.

For the compound `Cc1ccccc1-c1ccc(-c2nc(-c3ccc(CNC(C)(CO)C(=O)O)cc3)no2)cc1C(F)(F)F` (centres unmarked) [Example 65], the inhibition constant Ki at S1P3 (setting [3]) was determined as 2.56e-06 M; at S1P1 [1] (setting [4]), 4.82e-09 M. The compound further yielded an EC50 on S1P1 [2] of 7.53 nM.

Consider `Cc1ccccc1-c1ccc(-c2nc(-c3ccc(CNC4(C(=O)O)CCC4)cc3)no2)cc1C(F)(F)F` [Example 66], for which the Ki was found to be 9.31e-07 M at S1P3 (setting [3]) and 3.86e-09 M on S1P1 [1] (setting [4]). A half-maximal effect at S1P1 [2] (EC50) was put at 27.6 nM.
